From US20130116263A1, “PAK INHIBITORS FOR THE TREATMENT OF CELL PROLIFERATIVE DISORDERS” (AFRAXIS, INC., priority 2011, published 2013)

Legend:
Assay type in all cases: biochemical
PAK2 (PAK65) = PAK2 (PAK65) (Homo sapiens, UniProt Q13177); test: In vitro PAK inhibition assay (Z'-LYTE, SelectScreen), PAK2; details: read-out: PAK2 IC50
Outline: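 Z'-LYTE FRET readout using Ser/Thr 20 peptide (2 μM) with 0.29–6 ng PAK2 in 50 mM HEPES pH 7.5, 0.01% BRIJ-35, 10 mM MgCl2, 1 mM EGTA, 1% DMSO. Reaction and development each ran 60 min at room temperature.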

PAK3 = PAK3 (Homo sapiens, UniProt O75914); test: In vitro PAK inhibition assay (Z'-LYTE, SelectScreen), PAK3; details: read-out: PAK3 IC50
Outline: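 Z'-LYTE FRET format: PAK3 with Ser/Thr 20 peptide in 50 mM HEPES pH 7.5, 0.01% BRIJ-35, 10 mM MgCl2, 1 mM EGTA, 1% DMSO final. Kinase reaction 60 min at room temperature, then 60 min development and fluorescence read.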

PAK4 = PAK4 (Homo sapiens, UniProt O96013); test: In vitro PAK inhibition assay (Z'-LYTE, SelectScreen), PAK4
Outline: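 Z'-LYTE FRET assay with 0.1-0.75 ng PAK-4 and 2 μM Ser/Thr 20 peptide in 50 mM HEPES pH 7.5, 10 mM MgCl2, 1 mM EGTA, 0.01% BRIJ-35, 1% DMSO; ATP near apparent Km. 1 h kinase reaction at room temperature, then 1 h development; IC50 from 10-point 3-fold titrations fitted to a sigmoidal dose-response.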

PAK1 = PAK1 (Homo sapiens, UniProt Q13153); test: In vitro PAK inhibition assay (Z'-LYTE, SelectScreen), PAK1; details: read-out: PAK1 IC50
Outline: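 FRET-based Z'-LYTE readout: PAK1 phosphorylates Ser/Thr 19 peptide in 50 mM HEPES pH 7.5, 0.01% BRIJ-35, 10 mM MgCl2, 1 mM EGTA, 1% DMSO, 60 min at room temperature, followed by 60 min development.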

Chain of PAK4 (O96013 whole entry): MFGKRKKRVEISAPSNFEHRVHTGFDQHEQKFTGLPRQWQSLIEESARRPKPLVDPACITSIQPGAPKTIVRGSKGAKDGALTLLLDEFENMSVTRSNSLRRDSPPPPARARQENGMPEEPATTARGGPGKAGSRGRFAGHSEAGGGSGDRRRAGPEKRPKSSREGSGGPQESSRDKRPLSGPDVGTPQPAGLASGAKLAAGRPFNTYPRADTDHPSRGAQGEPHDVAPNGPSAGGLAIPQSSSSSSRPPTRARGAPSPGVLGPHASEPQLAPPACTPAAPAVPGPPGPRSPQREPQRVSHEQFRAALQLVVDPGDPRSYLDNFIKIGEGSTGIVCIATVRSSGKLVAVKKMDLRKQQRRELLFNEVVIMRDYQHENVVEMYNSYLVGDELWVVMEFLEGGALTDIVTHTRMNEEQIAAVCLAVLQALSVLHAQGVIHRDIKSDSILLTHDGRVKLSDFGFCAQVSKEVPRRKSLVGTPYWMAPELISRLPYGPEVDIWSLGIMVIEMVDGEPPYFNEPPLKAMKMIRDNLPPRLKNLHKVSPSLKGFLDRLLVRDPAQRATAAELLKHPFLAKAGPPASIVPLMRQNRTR
Chain of PAK2 (PAK65) (Q13177 whole entry): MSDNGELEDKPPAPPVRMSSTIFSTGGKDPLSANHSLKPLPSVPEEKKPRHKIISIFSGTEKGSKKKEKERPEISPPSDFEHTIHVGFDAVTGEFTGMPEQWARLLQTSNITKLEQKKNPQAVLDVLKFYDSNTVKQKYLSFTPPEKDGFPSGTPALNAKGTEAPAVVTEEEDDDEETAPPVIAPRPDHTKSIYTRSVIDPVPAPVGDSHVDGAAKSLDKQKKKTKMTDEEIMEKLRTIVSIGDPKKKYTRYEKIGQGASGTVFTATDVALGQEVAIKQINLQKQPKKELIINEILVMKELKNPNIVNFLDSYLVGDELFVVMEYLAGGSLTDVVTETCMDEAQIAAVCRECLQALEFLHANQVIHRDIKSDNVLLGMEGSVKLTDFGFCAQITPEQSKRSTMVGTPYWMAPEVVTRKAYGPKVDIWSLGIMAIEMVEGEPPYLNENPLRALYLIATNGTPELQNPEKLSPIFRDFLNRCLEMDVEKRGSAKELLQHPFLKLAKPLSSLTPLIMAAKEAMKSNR
Chain of PAK3 (O75914 1-544 isoform O75914-2): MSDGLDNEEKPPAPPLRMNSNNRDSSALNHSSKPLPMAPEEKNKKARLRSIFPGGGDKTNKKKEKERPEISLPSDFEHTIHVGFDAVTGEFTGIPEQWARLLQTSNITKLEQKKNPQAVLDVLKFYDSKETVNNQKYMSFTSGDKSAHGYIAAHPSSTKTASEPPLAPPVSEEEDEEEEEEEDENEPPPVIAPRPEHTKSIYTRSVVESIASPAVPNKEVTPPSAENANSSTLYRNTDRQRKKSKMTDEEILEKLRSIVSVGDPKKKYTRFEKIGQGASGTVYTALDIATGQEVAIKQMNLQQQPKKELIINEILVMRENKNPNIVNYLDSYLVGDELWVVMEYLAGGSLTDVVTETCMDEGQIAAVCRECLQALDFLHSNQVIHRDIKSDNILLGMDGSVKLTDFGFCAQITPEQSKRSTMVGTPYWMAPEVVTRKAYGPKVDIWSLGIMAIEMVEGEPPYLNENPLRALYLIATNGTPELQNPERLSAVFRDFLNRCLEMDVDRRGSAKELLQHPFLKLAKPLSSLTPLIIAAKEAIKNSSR
Chain of PAK1 (Q13153 whole entry): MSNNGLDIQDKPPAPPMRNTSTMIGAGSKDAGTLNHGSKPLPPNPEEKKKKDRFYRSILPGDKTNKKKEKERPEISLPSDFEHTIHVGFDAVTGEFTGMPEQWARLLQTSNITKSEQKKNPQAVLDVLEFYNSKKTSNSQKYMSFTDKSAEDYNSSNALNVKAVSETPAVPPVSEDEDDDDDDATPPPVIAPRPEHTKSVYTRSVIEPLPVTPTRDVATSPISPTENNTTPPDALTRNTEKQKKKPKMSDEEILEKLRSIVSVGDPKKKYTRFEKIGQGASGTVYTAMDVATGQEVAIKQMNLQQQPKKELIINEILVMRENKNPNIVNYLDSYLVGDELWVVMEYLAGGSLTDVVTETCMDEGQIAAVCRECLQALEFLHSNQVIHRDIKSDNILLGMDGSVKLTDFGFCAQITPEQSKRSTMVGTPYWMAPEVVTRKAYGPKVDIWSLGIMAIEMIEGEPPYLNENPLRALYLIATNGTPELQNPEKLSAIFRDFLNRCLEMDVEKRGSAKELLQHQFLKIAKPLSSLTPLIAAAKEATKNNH

| Structure (SMILES) | IC50 (PAK2 (PAK65)) [nM] | IC50 (PAK3) [nM] | IC50 (PAK4) [nM] | IC50 (PAK1) [nM] |
| --- | --- | --- | --- | --- |
| CCn1c(=O)c(-c2ccc(-c3cncc(C)n3)cc2Cl)cc2cnc(NC3CCC(CCN(C)C)CC3)nc21 (stereo not shown) [Example 70] | < 50 | 50 to 500 | > 5000 | < 50 |
| CCn1c(=O)c(-c2ccc(-c3cncc(C)n3)cc2Cl)cc2cnc(NCCOCCN)nc21 [Example 128] | 50 to 500 | 50 to 500 | > 5000 | 50 to 500 |
| CCNc1ncc2cc(-c3ccc(-c4nccnc4C)cc3Cl)c(=O)n(CC)c2n1 [Example 6] | 50 to 500 | 50 to 500 | > 5000 | 50 to 500 |
| Cc1cncc(-c2ccc(-c3cc4cnc(N[C@H]5CCOC5)nc4n([C@H]4CC[C@H](N)CC4)c3=O)c(Cl)c2)n1 [Example 110] | < 50 | < 50 | > 5000 | < 50 |
| CCn1c(=O)c(-c2ccc(-c3cnccc3C)cc2Cl)cc2cnc(NC3CCOCC3)nc21 [Example 47] | 500 to 5000 | 50 to 500 | > 5000 | 50 to 500 |
| CCn1c(=O)c(-c2ccc(-c3ccncc3C)cc2Cl)cc2cnc(NC3CCOCC3)nc21 [Example 46] | 500 to 5000 | 500 to 5000 | > 5000 | 500 to 5000 |
| CCn1c(=O)c(-c2ccc(-c3cncc(C)n3)cc2Cl)cc2cnc(N[C@H]3CC[C@@H](N)CC3)nc21 [Example 86] | 50 to 500 | 500 to 5000 | > 5000 | 50 to 500 |
| Cc1cncc(-c2ccc(-c3cc4cnc(N[C@H]5CCOC5)nc4n(C4CCNCC4)c3=O)c(Cl)c2)n1 [Example 106] | 50 to 500 | 50 to 500 | > 5000 | 50 to 500 |
| Cc1cncc(-c2ccc(-c3cc4cnc(NC5CCCC5)nc4n([C@H]4CC[C@H](N)CC4)c3=O)c(Cl)c2)n1 [Example 118] | < 50 | < 50 | 500 to 5000 | < 50 |
| Cc1nccnc1-c1ccc(-c2cc3cnc(N[C@H]4CCOC4)nc3n(Cc3ccncc3)c2=O)c(Cl)c1 [Example 126] | 50 to 500 | 50 to 500 | > 5000 | 50 to 500 |
| CCn1c(=O)c(-c2cc(C)c(-c3noc(C)n3)cc2Cl)cc2cnc(N[C@@H]3CCOC3)nc21 [Example 73] | 500 to 5000 | 500 to 5000 | > 5000 | 500 to 5000 |
| CCn1c(=O)c(-c2ccc(-c3nccnc3C)cc2Cl)cc2cnc(NC3CCSCC3)nc21 [Example 18] | 50 to 500 | 50 to 500 | > 5000 | 50 to 500 |
| CCn1c(=O)c(-c2ccc(-c3cncc(C)n3)cc2Cl)cc2cnc(NC3CCC(CCN)CC3)nc21 (stereo not shown) [Example 134] | < 50 | 50 to 500 | > 5000 | < 50 |
| CCn1c(=O)c(-c2ccc(-c3nccnc3C)cc2Cl)cc2cnc(NCCN(C)C)nc21 [Example 13] | 500 to 5000 | 500 to 5000 | > 5000 | 500 to 5000 |
| CCn1c(=O)c(-c2ccc(-c3nccnc3C)cc2Cl)cc2cnc(NC3CCN(C(C)=O)C3)nc21 (stereo not shown) [Example 19] | 50 to 500 | 500 to 5000 | > 5000 | 50 to 500 |
| CCn1c(=O)c(-c2ccc(-c3cncc(C)n3)cc2Cl)cc2cnc(NCCCOCCN)nc21 [Example 133] | 50 to 500 | 500 to 5000 | > 5000 | 50 to 500 |
| CCn1c(=O)c(-c2ccc(-c3nccnc3C)cc2Cl)cc2cnc(N[C@@H]3CCOC(C)(C)C3)nc21 (stereo in doubt) [Example 76] | < 50 | 50 to 500 | > 5000 | < 50 |
| Cc1cncc(-c2ccc(-c3cc4cnc(N[C@H]5CCOC5)nc4n(CCN(C)C)c3=O)c(Cl)c2)n1 [Example 103] | 50 to 500 | 500 to 5000 | > 5000 | 50 to 500 |
| CCn1c(=O)c(-c2ccc(-c3nccnc3C)cc2Cl)cc2cnc(NC3CCCCC3)nc21 [Example 3] | 500 to 5000 | > 5000 | > 5000 | > 5000 |
| CCn1c(=O)c(-c2ccc(-c3noc(C)n3)cc2Cl)cc2cnc(NCCC3CCN(C)CC3)nc21 [Example 93] | < 50 | 50 to 500 | > 5000 | < 50 |
| CCn1c(=O)c(-c2ccc(-c3noc(C)n3)cc2Cl)cc2cnc(N[C@@H]3CCOC3)nc21 [Example 54] | 50 to 500 | 50 to 500 | > 5000 | 50 to 500 |
| COCCCn1c(=O)c(-c2ccc(-c3cncc(C)n3)cc2Cl)cc2cnc(N[C@@H]3CCOC3)nc21 [Example 64] | < 50 | 50 to 500 | > 5000 | < 50 |
